Experimental data taken from ChEMBL document CHEMBL4665775, “Half-life extension of peptidic APJ agonists by N-terminal lipid conjugation” (Bioorg Med Chem Lett, 2020).
pEC50: −log10 of the molar value. Activity calls are given as the source filed them. The calls are words filed in the database; no cut-off is given here.

Columns and labels:
Rattus norvegicus [1] = assay: Positive […] activity in anesthetized Lewis rat model of myocardial infarction assessed as increase in ejection fraction at 1 mg/kg/min, iv administered as continuous infusion for 20 mins; format: functional
Rattus norvegicus [2] = assay: Positive […] activity in anesthetized Lewis rat model of myocardial infarction assessed as plasma concentration for maximal pharmacodynamic effect at 1 mg/kg/min, iv administered as continuous infusion for 20 mins; format: functional
[3] = Stability in rat plasma assessed as compound remaining at 4 hrs; format: ADME, cell-free; conditions: read-out: Stabilty
[4] = Unbound fraction in anesthetized Lewis rat myocardial infarction model plasma assessed as free plasma concentration at 3.7 ug/kg/min, iv administered as continuous infusion for 30 mins; format: ADME, organism-based; conditions: in vivo, 0.0037 mg/kg, 0.5 h, dose 3.7 µg/kg/min
Rattus norvegicus [5] = assay: Positive […] activity in anesthetized Lewis rat model of myocardial infarction assessed as increase in ejection fraction at 30 ug/kg/min, iv administered as infusion for 30 mins; format: functional; conditions: dose 30 µg/kg/min, 0.5 h
Rattus norvegicus [6] = assay: Agonist activity at APJ receptor in anesthetized Lewis rat model of myocardial infarction assessed as target coverage at 3.7 ug/kg/min, iv administered as continuous infusion for 30 mins; format: functional, organism-based; conditions: dose 3.7 µg/kg/min
[7] = Plasma protein binding in rat assessed as unbound fraction by LC-MS/MS analysis; format: ADME, cell-free
[8] = Unbound Cmax in rat at 0.5 mg/kg, sc at 15 mins; format: ADME, organism-based; conditions: in vivo, 0.25 h
Apelin receptor = target: T1, Apelin receptor (Rattus norvegicus, UniProt Q9JHG3); assay: Agonist activity at rat APJ receptor stably expressed in CHO cell membranes in presence of [35S]GTPgammaS by scintillation proximity assay; format: functional
T1 sequence (Q9JHG3 whole entry): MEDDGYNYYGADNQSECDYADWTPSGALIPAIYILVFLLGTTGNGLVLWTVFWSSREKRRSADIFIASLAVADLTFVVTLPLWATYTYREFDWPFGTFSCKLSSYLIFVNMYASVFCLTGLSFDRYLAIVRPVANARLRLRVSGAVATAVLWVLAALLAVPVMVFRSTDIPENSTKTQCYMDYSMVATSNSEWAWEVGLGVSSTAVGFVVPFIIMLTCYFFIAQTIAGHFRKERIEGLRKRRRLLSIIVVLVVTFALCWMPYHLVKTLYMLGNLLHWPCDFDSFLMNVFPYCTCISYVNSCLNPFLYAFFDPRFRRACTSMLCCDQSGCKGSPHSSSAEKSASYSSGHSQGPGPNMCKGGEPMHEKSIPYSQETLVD

[9] = Stability in rat liver S9 fraction assessed as compound remaining at 4 hrs; format: ADME, subcellular; conditions: read-out: Stabilty
Rattus norvegicus [10] = assay: Positive […] activity in anesthetized Lewis rat model of myocardial infarction assessed as increase in ejection fraction at 3.7 ug/kg/min, iv administered as infusion for 30 mins; format: functional, organism-based; conditions: dose 3.7 µg/kg/min
[11] = Agonist activity at APJ receptor in anesthetized Lewis rat model of myocardial infarction assessed as target coverage at 10 ug/kg/min iv administered as continuous infusion for 30 mins relative to control; format: functional; conditions: dose 10 µg/kg/min, 0.5 h
Rattus norvegicus [12] = assay: Positive […] activity in anesthetized Lewis rat model of myocardial infarction assessed as increase in ejection fraction at 10 ug/kg/min, iv administered as continuous infusion for 30 mins; format: functional; conditions: dose 10 µg/kg/min, 0.5 h
[13] = Unbound fraction in anesthetized Lewis rat myocardial infarction model plasma assessed as free plasma concentration at 30 ug/kg/min, iv administered as continuous infusion for 30 mins; format: ADME, organism-based; conditions: in vivo, 0.03 mg/kg, 0.5 h, dose 30 µg/kg/min
[14] = Agonist activity at APJ receptor in anesthetized Lewis rat model of myocardial infarction assessed as target coverage at 30 ug/kg/min iv administered as continuous infusion for 30 mins relative to control; format: functional; conditions: dose 30 µg/kg/min, 0.5 h
[15] = Terminal half life in rat at 0.1 mg/kg, iv for 30 mins; format: ADME, organism-based; conditions: in vivo, read-out: beta t1/2
[16] = Unbound fraction in anesthetized Lewis rat myocardial infarction model plasma assessed as free plasma concentration at 10 ug/kg/min, iv administered as continuous infusion for 30 mins; format: ADME, organism-based; conditions: in vivo, 0.01 mg/kg, 0.5 h, dose 10 µg/kg/min
[17] = Stability in rat Kidney S9 fraction assessed as compound remaining at 4 hrs; format: ADME, subcellular; conditions: read-out: Stabilty

SMILES | Activity (Rattus norvegicus [1]) | MPE (Rattus norvegicus [2]) | remaining at 4 h [3] | Cp(f) [4] | Activity (Rattus norvegicus [5]) | Activity (Rattus norvegicus [6]) | fraction unbound [7] | fCmax [8] | pEC50 (Apelin receptor) | remaining at 4 h [9] | Activity (Rattus norvegicus [10]) | fold change (FC) [11] | Activity (Rattus norvegicus [12]) | Cp(f) [13] | fold change (FC) [14] | half-life [15] | Cp(f) [16] | remaining at 4 h [17]
CSCC[C@H](NC(=O)[C@@H]1CCCN1C(=O)CNC(=O)[C@H](CCCCN)NC(=O)[C@H](Cc1cnc[nH]1)NC(=O)[C@H](CO)NC(=O)[C@H](CC(C)C)NC(=O)[C@H](CCCNC(=N)N)NC(=O)[C@@H]1CCCN1C(=O)[C@H](CCCNC(=N)N)NC(=O)[C@@H]1CCC(=O)N1)C(=O)N1CCC[C@H]1C(=O)N[C@@H](Cc1ccccc1)C(=O)O | 16.6% | 16.4 µM | – | – | – | – | – | – | – | – | – | – | – | – | – | – | – | –
CCCCCCCCCCCCC(=O)N[C@@H](CCC(=O)NCCOCCOCC(=O)NCCOCCOCC(=O)N[C@@H](CCC(N)=O)C(=O)N[C@@H](CCCNC(=N)N)C(=O)N1CCC[C@H]1C(=O)N[C@@H](CCCNC(=N)N)C(=O)N[C@@H](CC(C)C)C(=O)N[C@@H](CO)C(=O)N[C@@H](Cc1c[nH]cn1)C(=O)N[C@@H](CCCCN)C(=O)NCC(=O)N1CCC[C@H]1C(=O)N[C@@H](CCSC)C(=O)N1CCC[C@H]1C(=O)N[C@@H](Cc1ccccc1)C(=O)O)C(=O)O | – | – | 51% | 3 nM | 6.1% | inactive | 0.011 | 0.3 nM | 8.34 | > 90% | inactive | 2.7 | 22.8% | 29 nM | 6.3 | 4.3 min | 12 nM | 82%
